Measured values reported in patent US20210387966A1, “2-AMINO-N-HETEROARYL-NICOTINAMIDES AS NAV1.8 INHIBITORS” (Merck Sharp & Dohme Corp., priority 2018, published 2021).

What follows are compounds tested against T1, human Nav1.8 channels (Homo sapiens, UniProt Q9Y5Y9) (assay: Nav1.8 Qube automated patch-clamp assay). Details: human Nav1.8 stably expressed in HEK 293 cells; whole-cell voltage clamp, room temperature; resting or inactivated state not specified; read-out: IC50 values (nM) for Examples in the Nav1.8 Qube Assay.
T1 construct: expressed in transfected cells
T1 sequence (Q9Y5Y9 whole entry): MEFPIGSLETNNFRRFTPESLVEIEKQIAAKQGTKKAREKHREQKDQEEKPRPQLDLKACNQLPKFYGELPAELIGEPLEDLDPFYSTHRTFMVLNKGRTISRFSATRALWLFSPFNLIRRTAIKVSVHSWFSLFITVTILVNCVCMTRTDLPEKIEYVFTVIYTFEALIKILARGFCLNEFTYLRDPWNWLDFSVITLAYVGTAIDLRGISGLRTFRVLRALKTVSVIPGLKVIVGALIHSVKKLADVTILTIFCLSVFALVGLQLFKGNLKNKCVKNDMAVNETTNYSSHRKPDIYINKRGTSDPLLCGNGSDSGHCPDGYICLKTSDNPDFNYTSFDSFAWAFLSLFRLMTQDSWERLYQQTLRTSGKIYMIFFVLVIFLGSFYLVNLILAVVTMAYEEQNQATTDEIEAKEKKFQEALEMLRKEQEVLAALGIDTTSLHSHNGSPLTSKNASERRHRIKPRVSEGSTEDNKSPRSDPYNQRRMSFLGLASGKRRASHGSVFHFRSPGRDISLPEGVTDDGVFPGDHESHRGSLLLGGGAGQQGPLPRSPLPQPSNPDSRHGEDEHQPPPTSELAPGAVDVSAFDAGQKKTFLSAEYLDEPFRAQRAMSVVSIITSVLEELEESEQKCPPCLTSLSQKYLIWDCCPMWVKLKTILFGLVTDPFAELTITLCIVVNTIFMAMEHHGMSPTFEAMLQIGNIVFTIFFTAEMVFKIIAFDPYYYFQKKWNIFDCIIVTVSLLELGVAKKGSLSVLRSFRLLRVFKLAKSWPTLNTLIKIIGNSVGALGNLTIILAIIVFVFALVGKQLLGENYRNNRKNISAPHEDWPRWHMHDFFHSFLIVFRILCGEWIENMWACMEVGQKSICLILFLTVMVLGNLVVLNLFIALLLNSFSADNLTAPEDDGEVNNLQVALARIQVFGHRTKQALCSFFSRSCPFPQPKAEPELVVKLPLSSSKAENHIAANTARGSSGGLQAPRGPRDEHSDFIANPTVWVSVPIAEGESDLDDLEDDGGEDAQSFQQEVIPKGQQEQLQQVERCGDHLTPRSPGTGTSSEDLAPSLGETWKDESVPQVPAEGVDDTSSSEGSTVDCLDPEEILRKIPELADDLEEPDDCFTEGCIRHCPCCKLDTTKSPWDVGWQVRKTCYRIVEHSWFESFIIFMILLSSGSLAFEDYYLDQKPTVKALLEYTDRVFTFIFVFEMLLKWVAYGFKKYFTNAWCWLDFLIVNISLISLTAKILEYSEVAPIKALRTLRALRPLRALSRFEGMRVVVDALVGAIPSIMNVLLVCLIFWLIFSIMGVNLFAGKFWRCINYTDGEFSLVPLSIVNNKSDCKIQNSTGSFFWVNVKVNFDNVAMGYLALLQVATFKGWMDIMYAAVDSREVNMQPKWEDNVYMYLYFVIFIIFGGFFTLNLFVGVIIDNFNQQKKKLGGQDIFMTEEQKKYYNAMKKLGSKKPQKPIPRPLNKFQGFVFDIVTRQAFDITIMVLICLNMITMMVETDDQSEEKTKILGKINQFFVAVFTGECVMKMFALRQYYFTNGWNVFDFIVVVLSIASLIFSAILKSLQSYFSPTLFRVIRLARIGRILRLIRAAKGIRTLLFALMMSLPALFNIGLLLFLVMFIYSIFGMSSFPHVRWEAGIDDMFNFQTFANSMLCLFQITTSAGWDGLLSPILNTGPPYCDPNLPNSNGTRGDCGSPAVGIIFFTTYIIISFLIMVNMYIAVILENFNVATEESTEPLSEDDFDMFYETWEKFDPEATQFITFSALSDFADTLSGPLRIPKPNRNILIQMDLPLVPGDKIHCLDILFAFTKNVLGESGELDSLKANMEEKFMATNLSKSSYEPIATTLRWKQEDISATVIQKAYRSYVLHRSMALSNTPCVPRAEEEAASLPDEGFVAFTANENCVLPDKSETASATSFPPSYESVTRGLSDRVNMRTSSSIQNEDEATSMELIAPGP
Type: cell-based
Description: Compounds were tested on human Nav1.8 and Nav1.5 channels stably expressed in human embryo kidney (HEK) 293 cells. Sodium current measurements on Qube® were conducted as follows: automated 384-well patch-clamp assays on the Qube® platform (Sophion Biosciences) were used to measure the inhibition of sodium flow through human Nav1.8 and Nav1.5 channels. Whole-cell voltage-clamp recordings were performed in QChips® (Sophion Biosciences) at room temperature. Nav1.8 current measurements on Qube® were obtained as follows: Nav1.8 currents were elicited with a 10 second 1 Hertz (Hz) pulse train from a holding potential of −90 millivolts (mV), delivered to the cells once per minute in the control condition (DMSO only) and after compound addition. The 1 hertz pulse train stimulation consisted of ten test pulses to 10 millivolt (mV) for 20 milliseconds (ms), each of which was followed by a 980 millisecond repolarization to −67 millivolts. At the end of the 10 second pulse train stimulation, a second hyperpolarization step to −100 millivolt (mV) was used to recover Nav1.8 from fast inactivation. The peak currents elicited by the 1st and 10th test pulses were used to determine IC50 values for resting inhibition and inactivated state inhibition. Nav1.5 current measurements on Qube® were obtained as follows: Nav1.5 currents were elicited with a 20 second 3 Hertz pulse train in the control condition (DMSO only) and after compound addition. The pulse train consisted of sixty 20 millisecond test pulses to 0 millivolt from a holding potential of −80 millivolt (mV). The average peak currents elicited by the last 3 test pulses were used to determine IC50 values for Nav1.5 inhibition.
The following buffers were used for the Qube® recordings: External buffer for Nav1.8 Qube® recording: 150 NaCl, 2 CaCl2, 5 KCl, 1 Mg Cl2, 10 HEPES, 12 Dextrose; External buffer for Qube® Nav1.5 recording: 120 N-Methyl-D-Glucamine, 40 NaCl, 1 KCl, 2.7 CaCl2, 5 HEPES, 0.5 MgCl2: and Internal buffer for Qube® recording: 120 CsF, 30 CsCl, 10 EGTA, 5 HEPES, 5 NaF, 2 MgCl2.
For all Qube® experiments offline analysis was used to determine percent inhibition as a function of drug concentration. IC50 values were determined by fitting to the Hill equation.

Row | SMILES | IC50 [nM]
1 | NS(=O)(=O)c1cc(NC(=O)c2cc(C(F)(F)F)cnc2N2CCN(CC3CC3)C(=O)C2)ccn1 [Example 99, 2-[4-(cyclopropylmethyl)-3-oxo-piperazin-1-yl]-N-(2-sulfamoyl-4-pyridyl)-5-(trifluoromethyl)pyridine-3-carboxamide] | 2560
2 | NS(=O)(=O)c1cc(NC(=O)c2cc(C(F)(F)F)cnc2N2CCc3sccc3C2)ccn1 [Example 79, 2-(6,7-dihydro-4H-thieno[3.2-c]pyridin-5-yl)-N-(2-sulfamoyl-4-pyridyl)-5-(trifluoromethyl)pyridin-3-carboxamide] | 21
3 | NC(=O)c1cncc(NC(=O)c2cc(C(F)(F)F)cnc2N2CCCCCC2)c1 [Example 8, 2-(azepan-1-yl)-N-(5-carbamoylpyridin-3-yl)-5-(trifluoromethyl)nicotinamide] | 2350
4 | NS(=O)(=O)c1cc(NC(=O)c2cc(C(F)(F)F)cnc2N2CCCC(C(F)(F)F)C2)ccn1 (centres unmarked) [Example 80, N-(2-sulfamoyl-4-pyridyl)-5-(trifluoromethyl)-2-[3-(trifluoromethyl)-1-piperidyl]pyridine-3-carboxamide] | 31
5 | C[C@H]1CN(c2ncc(C(F)(F)F)cc2C(=O)Nc2ccnc(S(N)(=O)=O)c2)CC[C@@H]1O [Example 77, 2-[(3S,4S)-4-hydroxy-3-methyl-1-piperidyl]-N-(2-sulfamoyl-4-pyridyl)-5-(trifluoromethyl)pyridine-3-carboxamide] | 2980
6 | C[C@@H]1CN(c2ncc(C(F)(F)F)cc2C(=O)Nc2ccnc(S(N)(=O)=O)c2)C[C@H](C)[C@]1(C)O [Example 75, 2-((3R,4s,5S)-4-hydroxy-3,4,5-trimethylpiperidin-1-yl)-N-(2-sulfamoylpyridin-4-yl)-5-(trifluoromethyl)nicotinamide] | 233
7 | CC1(C)CN(c2ncc(C(F)(F)F)cc2C(=O)Nc2ccnc(S(N)(=O)=O)c2)CCCO1 [Example 107, 2-(2,2-dimethyl-1,4-oxazepan-4-yl)-N-(2-sulfamoyl-4-pyridyl)-5-(trifluoromethyl)pyridine-3-carboxamide] | 139
8 | CC1CN(c2ncc(C(F)(F)F)cc2C(=O)Nc2ccnc(S(N)(=O)=O)c2)CCC(C(F)(F)F)O1 (single isomer, unassigned) [Example 120, 2-[(2S,7R or 2R,7S)-2-methyl-7-(trifluoromethyl)-1,4-oxazepan-4-yl]-N-(2-sulfamoylpyridin-4-yl)-5-(trifluoromethyl)pyridine-3-carboxamide] | 2.9
9 | NS(=O)(=O)c1cc(NC(=O)c2cc(C(F)(F)F)cnc2N2CCC(n3cccn3)C2)ccn1 (centres unmarked) [Example 94, 2-(3-pyrazol-1-ylpyrrolidin-1-yl)-N-(2-sulfamoyl-4-pyridyl)-5-(trifluoromethyl)pyridine-3-carboxamide] | 745
10 | NS(=O)(=O)c1cc(NC(=O)c2cc(C(F)(F)F)cnc2N2CCC(Cl)(Cl)CC2)ccn1 [Example 29, 2-(4,4-Dichloropiperidin-1-yl)-N-(2-sulfamoylpyridin-4-yl)-5-(trifluoromethyl)nicotinamide] | 31
11 | NS(=O)(=O)c1cc(NC(=O)c2cc(C(F)(F)F)cnc2N2CC(Oc3ccc(C(F)(F)F)cc3)C2)ccn1 [Example 97, N-(2-sulfamoyl-4-pyridyl)-5-(trifluoromethyl)-2-[3-[4-(trifluoromethyl)phenoxy]azetidin-1-yl]pyridine-3-carboxamide] | 1900
12 | NS(=O)(=O)c1cc(NC(=O)c2cc(C(F)(F)F)cnc2N2CCCC(CO)C2)ccn1 (centres unmarked) [Example 7, 2-(3-(hydroxymethyl)piperidin-1-yl)-N-(2-sulfamoylpyridin-4-yl)-5-(trifluoromethyl)nicotinamide] | 2830
13 | NS(=O)(=O)c1cc(NC(=O)c2cc(C(F)(F)F)cnc2N2CC3CCC3(C(F)(F)F)C2)ccn1 (single isomer, unassigned) [Example 59, N-(2-sulfamoyl-4-pyridyl)-5-(trifluoromethyl)-2-[(1R,5R or 1S,5S)-1-(trifluoromethyl)-3-azabicyclo[3.2.0]heptan-3-yl]pyridine-3-carboxamide] | 116
14 | O=C(O)c1ccc(NC(=O)c2cc(C(F)(F)F)cnc2N2CCC(F)(F)CC2)cn1 [Example 3, 5-(2-(4,4-difluoropiperidin-1-yl)-5-(trifluoromethyl)nicotinamido)picolinic acid] | 2380
15 | CC1CN(c2ncc(C(F)(F)F)cc2C(=O)Nc2ccnc(S(N)(=O)=O)c2)CCC(C(F)(F)F)O1 (single isomer, unassigned) [Example 122, 2-((2R,7R or 2S,7S)-2-methyl-7-(trifluoromethyl)-1,4-oxazepan-4-yl)-N-(2-sulfamoylpyridin-4-yl)-5-(trifluoromethyl)nicotinamide] | 20
16 | NS(=O)(=O)c1cc(NC(=O)c2cc(C(F)(F)F)cnc2N2CCn3c(Cc4ccccc4)cnc3C2)ccn1 [Example 86, 2-(3-benzyl-6,8-dihydro-5H-imidazo[1,2-a]pyrazin-7-yl)-N-(2-sulfamoyl-4-pyridyl)-5-(trifluoromethyl)pyridine-3-carboxamide] | 172
17 | NS(=O)(=O)c1cc(NC(=O)c2ccc(C3CCC3)nc2N2CCCC(F)(F)CC2)ccn1 [Example 24, 6-cyclobutyl-2-(4,4-difluoroazepan-1-yl)-N-(2-sulfamoylpyridin-4-yl)nicotinamide] | 2.1

The next lines start with the values.

Row | IC50 [nM] | SMILES
18 | 102 | NS(=O)(=O)c1cc(NC(=O)c2cc(C(F)(F)F)nnc2N2CCCC(F)(F)CC2)ccn1 [Example 179, 3-(4,4-difluoroazepan-1-yl)-N-(2-sulfamoylpyridin-4-yl)-6-(trifluoromethyl)pyridazine-4-carboxamide]
19 | 9.2 | NS(=O)(=O)c1cc(NC(=O)c2cc(OC(F)F)cnc2N2CCCC(F)(F)CC2)ccn1 [Example 171, 2-(4,4-difluoroazepan-1-yl)-5-(difluoromethoxy)-N-(2-sulfamoylpyridin-4-yl)nicotinamide]
20 | 124 | Cc1nc(N2CCCCC2)c(C(=O)Nc2cncc(S(N)(=O)=O)c2)c(C)c1Cl [Example 191, 5-chloro-4,6-dimethyl-2-(1-piperidyl)-N-(5-sulfamoyl-3-pyridyl)pyridine-3-carboxamide]
21 | 16 | NS(=O)(=O)c1cc(NC(=O)c2cc(C(F)(F)F)cnc2N2CCCCCC2)ccn1 [Example 139, 2-(azepan-1-yl)-N-(2-sulfamoyl-4-pyridyl)-5-(trifluoromethyl)pyridine-3-carboxamide]
22 | 144 | Cc1nc(N2CCOC(C(F)F)C2)c(C(=O)Nc2ccnc(S(N)(=O)=O)c2)cc1Cl (single isomer, unassigned) [Example 125, (R or S)-5-chloro-2-(2-(difluoromethyl)morpholino)-6-methyl-N-(2-sulfamoylpyridin-4-yl)nicotinamide]
23 | 9670 | O=C(Nc1cncc(C(F)(F)F)c1)c1cc(C(F)(F)F)cnc1N1CCCCCC1 [Example 200, 2-(azepan-1-yl)-5-(trifluoromethyl)-N-[5-(trifluoromethyl)-3-pyridyl]pyridine-3-carboxamide]
24 | 425 | CCS(=O)(=O)c1cc(NC(=O)c2cc(C(F)(F)F)cnc2N2CCCCCC2)ccn1 [Example 198, 2-(azepan-1-yl)-N-(2-ethylsulfonyl-4-pyridyl)-5-(trifluoro-methyl)pyridine-3-carboxamide]
25 | 310 | N#Cc1cc(NC(=O)c2cc(C(F)(F)F)cnc2N2C[C@H]3CC[C@H]3C2)ccn1 [Example 153, 2-[(1R,5S)-3-azabicyclo[3.2.0]heptan-3-yl]-N-(2-cyano-4-pyridyl)-5-(tri-fluoromethyl)pyridine-3-carboxamide]
26 | 245 | NS(=O)(=O)c1cccc(NC(=O)c2cc(C(F)(F)F)cnc2N2CCCCCC2)n1 [Example 141, 2-(azepan-1-yl)-N-(6-sulfamoyl-2-pyridyl)-5-(trifluoromethyl)pyridine-3-carboxamide]
27 | 654 | N#Cc1cncc(NC(=O)c2cc(C(F)(F)F)cnc2N2CCCCCC2)c1 [Example 193, 2-(azepan-1-yl)-N-(5-cyano-3-pyridyl)-5-(trifluoromethyl)-pyridine-3-carboxamide]
28 | 1540 | COc1cc(NC(=O)c2cc(C(F)(F)F)cnc2N2CCC3(CC2)CC3)ccn1 [Example 143, N-(2-methoxypyridin-4-yl)-2-(6-azaspiro[2.5]octan-6-yl)-5-(trifluoromethyl)-nicotinamide]
29 | 80 | Cc1nc(N2CCCCCC2)c(C(=O)Nc2cc[nH]c(=O)c2)c(C)c1Cl [Example 213, 2-(azepan-1-yl)-5-chloro-4,6-dimethyl-N-(2-oxo-1,2-dihydropyridin-4-yl)nicotinamide]
